What all share (type): cell-based
Test [1] has as its target T1, NK2 (Homo sapiens, UniProt P21452).
T1 sequence (P21452 1-398): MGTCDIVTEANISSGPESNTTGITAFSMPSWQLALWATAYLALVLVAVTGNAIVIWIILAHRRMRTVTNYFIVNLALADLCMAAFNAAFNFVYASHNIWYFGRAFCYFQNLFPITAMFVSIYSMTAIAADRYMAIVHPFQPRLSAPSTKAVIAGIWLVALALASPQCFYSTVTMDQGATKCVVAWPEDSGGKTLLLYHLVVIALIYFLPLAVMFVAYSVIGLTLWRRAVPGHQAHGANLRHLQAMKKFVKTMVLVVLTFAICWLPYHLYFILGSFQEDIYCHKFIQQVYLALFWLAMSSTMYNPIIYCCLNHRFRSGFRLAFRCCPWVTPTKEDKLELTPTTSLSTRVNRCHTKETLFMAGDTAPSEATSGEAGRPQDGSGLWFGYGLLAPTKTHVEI
As to the kind of experiment: Signal transduction (ST), intracellular Ca++ (FLIPR), NK2. The note with it: antagonist, read-out: NK2 pIC50 (converted).

For test [2], the target named is NK1 (Homo sapiens, UniProt P25103). Put plainly: Signal transduction (ST), intracellular Ca++ (FLIPR), functional NK1 antagonistic activity. The note with it: antagonist, read-out: NK1 pIC50 (converted). In a few lines:
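Confluent cells were loaded with 2 μM Fluo3 for 1 h at 37° C, then washed into Krebs buffer pH 7.4 with 1.25 mM CaCl2 and 2.5 mM probenecid. Antagonists were preincubated 20 min at RT before agonist addition. Peak Ca++ transients were read by FLIPR, with EC50 or IC50 from sigmoidal non-linear regression.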

Test [3] concerns the target T2, NK3 (Homo sapiens, UniProt P29371).
T2 sequence (P29371 1-465): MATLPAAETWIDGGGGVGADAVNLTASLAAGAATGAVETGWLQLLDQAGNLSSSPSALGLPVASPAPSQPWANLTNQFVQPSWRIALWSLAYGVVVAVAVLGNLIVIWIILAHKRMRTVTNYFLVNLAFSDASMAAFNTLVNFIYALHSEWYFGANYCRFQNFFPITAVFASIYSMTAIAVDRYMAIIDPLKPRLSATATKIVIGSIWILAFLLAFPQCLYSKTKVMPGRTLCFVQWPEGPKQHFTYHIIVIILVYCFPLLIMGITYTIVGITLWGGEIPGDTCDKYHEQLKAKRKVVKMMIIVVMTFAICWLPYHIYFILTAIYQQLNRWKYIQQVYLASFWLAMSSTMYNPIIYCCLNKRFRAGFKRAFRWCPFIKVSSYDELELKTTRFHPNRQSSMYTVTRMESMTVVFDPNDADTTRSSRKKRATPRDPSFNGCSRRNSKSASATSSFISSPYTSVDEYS
Put plainly: Signal transduction (ST), intracellular Ca++ (FLIPR), NK3. The note with it: antagonist, read-out: NK3 pIC50 (converted).

The structures appear in SMILES notation. A value given as a limit tells only on which side of the number the result lay.

Chain of NK1 (P25103 whole entry): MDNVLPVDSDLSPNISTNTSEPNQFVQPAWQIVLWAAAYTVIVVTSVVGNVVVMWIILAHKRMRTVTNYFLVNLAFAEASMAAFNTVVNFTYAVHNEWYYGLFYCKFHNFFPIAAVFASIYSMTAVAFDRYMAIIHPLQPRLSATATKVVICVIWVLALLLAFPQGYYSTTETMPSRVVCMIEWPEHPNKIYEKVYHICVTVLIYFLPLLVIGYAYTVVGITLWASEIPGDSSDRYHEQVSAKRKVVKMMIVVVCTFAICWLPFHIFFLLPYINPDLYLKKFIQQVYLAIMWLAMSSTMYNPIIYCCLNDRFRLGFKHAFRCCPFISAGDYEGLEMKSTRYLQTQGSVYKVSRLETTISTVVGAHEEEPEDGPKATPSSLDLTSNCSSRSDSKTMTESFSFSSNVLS

For `Cc1noc(C)c1S(=O)(=O)N1CCC2(CCN([C@H]3CCN(C(=O)c4cc(C(F)(F)F)cc(C(F)(F)F)c4)[C@H](Cc4ccccc4)C3)CC2)CC1` [Compound 101], the IC50 in test [1] is 2 µM; in test [2], 0.049 µM; in test [3], 6.03 µM.
The matching figures for `O=C(c1cc(C(F)(F)F)cc(C(F)(F)F)c1)N1CC[C@H](N2CCC3(CC2)CCN(S(=O)(=O)c2ccccc2)CC3)C[C@H]1Cc1ccccc1` [Compound 102]: more than 10 µM, 0.0617 µM and 0.708 µM.
The matching figures for `Cc1ccccc1S(=O)(=O)N1CCC2(CCN([C@H]3CCN(C(=O)c4cc(C(F)(F)F)cc(C(F)(F)F)c4)[C@H](Cc4ccccc4)C3)CC2)CC1` [Compound 103]: 2.51 µM, 0.0501 µM and 1.51 µM.
As to `Cc1cccc(S(=O)(=O)N2CCC3(CCN([C@H]4CCN(C(=O)c5cc(C(F)(F)F)cc(C(F)(F)F)c5)[C@H](Cc5ccccc5)C4)CC3)CC2)c1` [Compound 104], the values for the IC50 in test [1], in test [2] and in test [3] were approximately 4.57 µM, 0.0646 µM and 1.95 µM, respectively.
On to `Cc1ccc(S(=O)(=O)N2CCC3(CCN([C@H]4CCN(C(=O)c5cc(C(F)(F)F)cc(C(F)(F)F)c5)[C@H](Cc5ccccc5)C4)CC3)CC2)cc1` [Compound 105], for which the IC50 is 2.45 µM in test [1], 0.105 µM in test [2] and 2 µM in test [3].
The matching figures for `O=C(c1cc(C(F)(F)F)cc(C(F)(F)F)c1)N1CC[C@H](N2CCC3(CC2)CCN(S(=O)(=O)c2cccc(Cl)c2)CC3)C[C@H]1Cc1ccccc1` [Compound 107]: 4.17 µM, 0.115 µM and 3.16 µM.
The matching figures for `O=C(c1cc(C(F)(F)F)cc(C(F)(F)F)c1)N1CC[C@H](N2CCC3(CC2)CCN(S(=O)(=O)c2ccc(Cl)cc2)CC3)C[C@H]1Cc1ccccc1` [Compound 108]: 2.63 µM, 0.324 µM and 3.98 µM.
The matching figures for `O=C(c1cc(C(F)(F)F)cc(C(F)(F)F)c1)N1CC[C@H](N2CCC3(CC2)CCN(S(=O)(=O)c2c(Cl)cccc2Cl)CC3)C[C@H]1Cc1ccccc1` [Compound 111]: approximately 0.229 µM, 0.204 µM and 5.37 µM.
As to `O=C(c1cc(C(F)(F)F)cc(C(F)(F)F)c1)N1CC[C@H](N2CCC3(CC2)CCN(S(=O)(=O)c2ccc(Cl)cc2Cl)CC3)C[C@H]1Cc1ccccc1` [Compound 112], the IC50 is more than 10 µM in test [1], 0.55 µM in test [2] and more than 10 µM in test [3].
`O=C(c1cc(C(F)(F)F)cc(C(F)(F)F)c1)N1CC[C@H](N2CCC3(CC2)CCN(S(=O)(=O)c2ccc(Cl)c(Cl)c2)CC3)C[C@H]1Cc1ccccc1` [Compound 113]: the IC50 in test [1] is more than 10 µM; in test [2], 0.427 µM; in test [3] it was more than 10 µM.
As to `O=C(c1cc(C(F)(F)F)cc(C(F)(F)F)c1)N1CC[C@H](N2CCC3(CC2)CCN(S(=O)(=O)c2cc(Cl)cc(Cl)c2)CC3)C[C@H]1Cc1ccccc1` [Compound 114], the results for the IC50 in test [1], in test [2] and in test [3] were more than 10 µM, 0.363 µM and more than 10 µM, respectively.
For the compound `O=C(c1cc(C(F)(F)F)cc(C(F)(F)F)c1)N1CC[C@H](N2CCC3(CC2)CCN(S(=O)(=O)c2cc(Cl)c(Cl)cc2Cl)CC3)C[C@H]1Cc1ccccc1` [Compound 115], the IC50 in test [1] was more than 10 µM; in test [2] it was 0.49 µM; in test [3] it was more than 10 µM.
`O=C(c1cc(C(F)(F)F)cc(C(F)(F)F)c1)N1CC[C@H](N2CCC3(CC2)CCN(S(=O)(=O)c2ccc(F)cc2)CC3)C[C@H]1Cc1ccccc1` [Compound 116]: the figures for the IC50 in test [1], in test [2] and in test [3] were more than 10 µM, 0.0525 µM and 0.708 µM, respectively.
The matching figures for `O=C(c1cc(C(F)(F)F)cc(C(F)(F)F)c1)N1CC[C@H](N2CCC3(CC2)CCN(S(=O)(=O)c2ccc(C(F)(F)F)cc2)CC3)C[C@H]1Cc1ccccc1` [Compound 117]: more than 10 µM, 0.447 µM and more than 10 µM.
